Assay results published in patent publication US5025010A, “Benzothiazinone derivatives, and pharmaceuticals containing them” (Hoechst Aktiengesellschaft, priority 1987, dated 1991).
pIC50: −log10 of the molar value. Where a name gives a salt, the structure may show the parent alone.

Tests used:
calcium channels = experiment: displacement of tritium-labeled nitrendipine from membrane preparations containing isolated calcium channels; format: binding
Procedure: Their action on the calcium channels can be shown using the biochemical test model of the displacement of tritium-labeled nitrendipine. In this test, membrane preparations which contain isolated calcium channels are loaded with the labeled substance. After incubation with the test substance, the radioactivity released and the radioactivity remaining on the membrane are determined. The IC50 values shown by the compounds of the formula I, according to the invention, in this model are from 10^-6 molar to 10^-10 molar.

isolated rabbit aorta = experiment: isolated rabbit aorta: contraction of aorta rings depolarized with potassium chloride after pretreatment with the test substance; conditions: Oryctolagus cuniculus, concentration of 10^-6 M, KCl-depolarized aorta rings
Excerpt: Their calcium antagonistic or calcium agonistic action can be shown using the model of the isolated rabbit aorta. This entails aorta rings being depolarized with potassium chloride, whereupon they contract. Pretreatment with the test substance is followed by a diminution in contraction in the case of the compounds acting as calcium antagonists, but by an intensification of contraction in the case of compounds acting as calcium agonists. For example, the compound from Example 2 at a concentration of 10^-6 M results in a 32% diminution in contraction. The compound from Example 3 at a concentration of 10^-6 M results in a 93% intensification of contraction.

| pIC50 (calcium channels) | Structure (SMILES) | inhibition at 1 µM (isolated rabbit aorta; calcium antagonistic action, read-out: diminution in contraction) | activation at 1 µM (isolated rabbit aorta; calcium agonistic action, read-out: intensification of contraction) |
| --- | --- | --- | --- |
| 9.92 | COc1cc(CCN2CCN(CC#CCOc3ccccc3[C@@]3(C(C)C)Sc4ccccc4N(C)C3=O)CC2)cc(OC)c1OC [Example 2, (R)-2-Isopropyl-4-methyl-2-[2-[4-[4-(3,4,5-trimethoxyphenethyl)-1-piperazinyl]-2-butyn-1 yloxy]phenyl]-2H-1,4-benzothiazin-3(4H)-one dihydrochloride] | 32% |  |
|  | COc1cc(CCN2CCN(C/C=C\COc3ccccc3[C@@]3(C(C)C)Sc4ccccc4N(C)C3=O)CC2)cc(OC)c1OC [Example 3, (R)-2-isopropyl-4-methyl-2-[2-[4-[4-(3,4,5-trimethoxyphenethyl)-1-piperazinyl]-2-cis-buten-1-yloxy]phenyl]-2H-1,4-benzothiazin-3(4H)-one dihydrochloride] |  | 93% |
